# Source: patent US7741327B2 (Hoffmann-La Roche Inc., priority 2008, dated 2010)
# Experiments:
# C57B6 mice = assay: Glucokinase activator in vivo screen: blood glucose lowering in mice after oral dosing; conditions: Mus musculus, vs control, read-out: % gluc lowering @ 4 H; for change in vivo at 25 mg/kg: 4 h post 25 mg/kg oral dose; for change in vivo at 30 mg/kg: 4 h post 30 mg/kg oral dose
# Procedure: Glucokinase Activator in vivo Screen Protocol in Lean and Diet Induced Obese Mice: Lean or Diet-Induced Obese (DIO) C57BL/6J mice were orally dosed via gavage with Glucokinase (GK) activator following a two hour fasting period. Blood glucose determinations were made at various (e.g. 0, 1, 2, 4 and 8 h post-oral gavage) times during the study.
# C57Bl/6J mice were obtained from Jackson Laboratory (Bar Harbor, Me.) and were maintained in a light-dark cycle with lights on from 0600-1800 hr. For studies in lean mice, the mice were received at age ten weeks and given ad libitum access to control diet (LabDiet 5001 chow, PMI Nutrition, Brentwood, Mo.), and were at least age 11 weeks at the time of study. For studies in the DIO model, the mice were received at age five weeks and given ad libitum access to Bio-Serv F3282 High Fat Diet (Frenchtown, N.J.), and were at least age 16 weeks at the time of study. The experiments were conducted during the light phase of the light-dark cycle. Mice (n=6) are weighed and fasted for a two hour period prior to oral treatment. GK activators are formulated in Gelucire vehicle (Ethanol:Gelucire44/14:PEG400q.s. 4:66:30 v/w/v. For studies in lean mice, the mice were dosed orally with 5.0 μL per gram of body weight (i.e. 5 ml/kg×10.0 mg/ml formulation to equal a 50 mg/kg dose). For studies in DIO mice, the mice were dosed orally with 5.0 μL per gram of body weight (i.e. 5.0 ml/kg×5 mg/ml formulation to equal a 25 mg/kg dose). Immediately prior to dosing, a pre-dose (time zero) blood glucose reading was acquired by snipping off a small portion of the animal's tail and collecting 15 μL blood into a heparinized capillary tube for analysis. Following GK activator administration, additional blood glucose readings were taken at various time points post dose from the same tail wound. Results were interpreted by comparing the mean blood glucose values of vehicle treated mice with GK activator treated mice over the study period.
# The Table below provides data for % glucose lowering of a representative number of compounds of the present invention vs control at 4 h post 25 or 30 mg/kg dose in C57B6 mice: […]
# [1] = molecular target: T1, Recombinant human liver GK1 (GST-GK) (Homo sapiens, UniProt P35557); assay: In vitro glucokinase activity (G6PDH-coupled NADH assay); type: biochemical; conditions: 30° C., 5 mM D-glucose, 10% DMSO
# T1 construct: made in house; host or cells: E. coli
# T1 sequence (P35557 1-466 isoform P35557-2): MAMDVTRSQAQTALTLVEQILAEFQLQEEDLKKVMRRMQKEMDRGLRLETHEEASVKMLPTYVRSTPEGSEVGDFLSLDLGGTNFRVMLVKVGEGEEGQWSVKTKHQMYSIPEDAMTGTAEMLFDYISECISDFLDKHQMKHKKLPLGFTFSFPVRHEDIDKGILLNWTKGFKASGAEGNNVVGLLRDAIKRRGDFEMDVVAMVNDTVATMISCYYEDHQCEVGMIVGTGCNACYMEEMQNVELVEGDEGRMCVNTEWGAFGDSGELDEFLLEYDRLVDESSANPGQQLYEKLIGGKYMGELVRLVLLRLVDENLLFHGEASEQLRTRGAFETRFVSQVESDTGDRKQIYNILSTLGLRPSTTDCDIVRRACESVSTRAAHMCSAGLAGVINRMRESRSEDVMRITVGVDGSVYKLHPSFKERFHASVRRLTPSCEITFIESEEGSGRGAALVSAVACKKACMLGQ
# How it was run: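 Activation measured as the rate of OD340 rise from G6PDH-coupled NADH production, relative to 10% DMSO control, reported as SC1.5 (concentration for 50% activity increase). Conditions: 30° C, pH 7.1 Hepes, 5 mM glucose, 1 mM ATP, purified recombinant GST-human GK1, compound preincubated 10 min before enzyme addition.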
Structure (SMILES),change in vivo at 25 mg/kg (C57B6 mice),SC1.5 (concentration of activator that produced a 50% increase in the activity of GK) [1],change in vivo at 30 mg/kg (C57B6 mice)
"CC(C)(O)Cn1ccc(NC(=O)[C@H](CC2CCCC2)N2CC(OC3CCCC3)=CC2=O)n1 [Example 16, (S)-3-Cyclopentyl-N-[1-(2-hydroxy-2-methyl-propyl)-1H-pyrazol-3-yl]-2-(4-cyclopentyloxy-2-oxo-2,5-dihydro-pyrrol-1-yl)-propionamide]",-36%,0.649 µM,
"CC(C)(O)Cn1ccc(NC(=O)[C@H](CC2CCCC2)N2CC(OC3CCCCC3)=CC2=O)n1 [Example 17, (S)-3-Cyclopentyl-N-[1-(2-hydroxy-2-methyl-propyl)-1H-pyrazol-3-yl]-2-(4-cyclohexyloxy-2-oxo-2,5-dihydro-pyrrol-1-yl)-propionamide]",-35.8%,0.366 µM,
"CC(C)(O)Cn1ccc(NC(=O)[C@H](CC2CCCC2)N2CC(OC3CCOCC3)=CC2=O)n1 [Example 18, (S)-3-Cyclopentyl-N-[1-(2-hydroxy-2-methyl-propyl)-1H-pyrazol-3-yl]-2-[2-oxo-4-(tetrahydro-pyran-4-yloxy)-2,5-dihydro-pyrrol-1-yl]-propionamide]",-10%,3.982 µM,
"CC(C)(O)Cn1ccc(NC(=O)[C@H](CC2CCCC2)N2CC(OC3CCC3)=CC2=O)n1 [Example 19, (S)-3-Cyclopentyl-N-[1-(2-hydroxy-2-methyl-propyl)-1H-pyrazol-3-yl]-2-(4-cyclobutoxy-2-oxo-2,5-dihydro-pyrrol-1-yl)-propionamide]",-29.5%,1.991 µM,
"COC(C)(C)Cn1ccc(NC(=O)[C@H](CC2CCCC2)N2CC(OC3CCCC3)=CC2=O)n1 [Example 21, (S)-3-Cyclopentyl-N-[1-(2-methoxy-2-methyl-propyl)-1H-pyrazol-3-yl]-2-(4-cyclopentyloxy-2-oxo-2,5-dihydro-pyrrol-1-yl)-propionamide]",-26.5%,0.545 µM,
"COc1ccccc1OC1=CC(=O)N([C@@H](CC2CCCC2)C(=O)Nc2nccs2)C1 [Example 26, (S)-3-Cyclopentyl-2-[4-(2-methoxy-phenoxy)-2-oxo-2,5-dihydro-pyrrol-1-yl]-N-thiazol-2-yl-propionamide]",-36.9%,0.031 µM,
"COc1ccccc1OC1=CC(=O)N([C@@H](CC2CCCC2)C(=O)Nc2ccn(CC(C)(C)O)n2)C1 [Example 27, (S)-3-Cyclopentyl-N-[1-(2-hydroxy-2-methyl-propyl)-1H-pyrazol-3-yl]-2-[4-(2-methoxy-phenoxy)-2-oxo-2,5-dihydro-pyrrol-1-yl]-propionamide]",,0.029 µM,-52.2%
"COc1ccccc1OC1=CC(=O)N([C@@H](CC2CCCCC2)C(=O)Nc2ccn(CC(C)(C)O)n2)C1 [Example 28, (S)-3-Cyclohexyl-N-[1-(2-hydroxy-2-methyl-propyl)-1H-pyrazol-3-yl]-2-[4-(2-methoxy-phenoxy)-2-oxo-2,5-dihydro-pyrrol-1-yl]-propionamide]",-45.4%,0.013 µM,
"COc1ccccc1OC1=CC(=O)N([C@@H](CC2CCCO2)C(=O)Nc2ccn(CC(C)(C)O)n2)C1 (stereo partly drawn) [Example 31, (S)-N-[1-(2-hydroxy-2-methyl-propyl)-1H-pyrazol-3-yl]-2-[4-(2-methoxy-phenoxy)-2-oxo-2,5-dihydro-pyrrol-1-yl]-3-(tetrahydro-furan-2-yl)-propionamide]",-31.6%,0.348 µM,
"CC(C)(O)Cn1ccc(NC(=O)[C@H](CC2CCCCC2)N2CC(Oc3ccccc3C(F)(F)F)=CC2=O)n1 [Example 32, (S)-3-Cyclohexyl-N-[1-(2-hydroxy-2-methyl-propyl)-1H-pyrazol-3-yl]-2-[2-oxo-4-(2-trifluoromethyl-phenoxy)-2,5-dihydro-pyrrol-1-yl]-propionamide]",-37.5%,0.025 µM,
"CC(C)(O)Cn1ccc(NC(=O)[C@H](CC2CCOCC2)N2CC(Oc3c(F)cccc3F)=CC2=O)n1 [Example 43, (S)-2-[4-(2,6-Difluoro-phenoxy)-2-oxo-2,5-dihydro-pyrrol-1-yl]-N-[1-(2-hydroxy-2-methylpropyl)-1H-pyrazol-3-yl]-3-(tetrahydro-pyran-4-yl)-propionamide]",,0.058 µM,-38.1%
"CC(C)C[C@@H](C(=O)Nc1ccn(C[C@@H](O)CO)n1)N1CC(Oc2c(F)cccc2F)=CC1=O [Example 47, (S)-2-[4-(2,6-difluoro-phenoxy)-2-oxo-2,5-dihydro-pyrrol-1-yl]-4-methyl-pentanoic acid [1-((R)-2,3-dihydroxy-propyl)-1H-pyrazol-3-yl]-amide]",,0.257 µM,-33.2%
"COc1cccc(OC2=CC(=O)N([C@@H](CC(C)C)C(=O)Nc3ccn(CC(C)(C)O)n3)C2)c1Cl [Example 48, (S)-2-[4-(2-Chloro-3-methoxy-phenoxy)-2-oxo-2,5-dihydro-pyrrol-1-yl]-4-methyl-pentanoic acid [1-(2-hydroxy-2-methyl-propyl)-1H-pyrazol-3-yl]-amide]",,0.078 µM,-57.4%
"CCOc1ccc(F)c(OC2=CC(=O)N([C@@H](CC(C)C)C(=O)Nc3ccn(CC(C)(C)O)n3)C2)c1F [Example 260, (S)-2-[4-(3-Ethoxy-2,6-difluoro-phenoxy)-2-oxo-2,5-dihydro-pyrrol-1-yl]-4-methyl-pentanoic acid [1-(2-hydroxy-2-methyl-propyl)-1H-pyrazol-3-yl]-amide]",,0.024 µM,
"CC(C)(O)Cn1ccc(NC(=O)C(CC2CCOCC2)N2CC(Oc3ccccc3Br)=CC2=O)n1 (stereo not drawn) [Example 261, 2-[4-(2-Bromo-phenoxy)-2-oxo-2,5-dihydro-pyrrol-1-yl]-N-[1-(2-hydroxy-2-methyl-propyl)-1H-pyrazol-3-yl]-3-(tetrahydro-pyran-4-yl)-propionamide]",,0.073 µM,
"CC(C)(O)Cn1ccc(NC(=O)[C@H](C[C@@H]2CCCCO2)N2CC(Oc3c(F)cccc3F)=CC2=O)n1 [Example 262, (S)-2-[4-(2,6-Difluoro-phenoxy)-2-oxo-2,5-dihydro-pyrrol-1-yl]-N-[1-(2-hydroxy-2-methyl-propyl)-1H-pyrazol-3-yl]-3-tetrahydro-pyran-2-yl-propionamide]",,0.33 µM,
"O=C(Nc1ccn(C[C@@H](O)CO)n1)C(CC1C[C@@H](F)[C@@H](F)C1)N1CC(Oc2ccccc2Cl)=CC1=O (stereo partly drawn) [Example 263, 2-[4-(2-Chloro-phenoxy)-2-oxo-2,5-dihydro-pyrrol-1-yl]-3-((1R,3S,4R)-3,4-difluoro-cyclopentyl)-N-[1-((R)-2,3-dihydroxy-propyl)-1H-pyrazol-3-yl]-propionamide]",,0.09 µM,
